Values quoted from earlier work, collected in patent publication US20120288450A1, “Chewing gum formula for enhancing psycho-spirituality” (priority 2009, published 2012).
Entries after “also recorded” stand apart in the source; their conditions may differ.

What was measured:
[1] = in vivo
[2] = target: T1, Monoamine Oxidase Type-A (MAO-A) (Homo sapiens, UniProt P21397)
T1 sequence (P21397 1-527): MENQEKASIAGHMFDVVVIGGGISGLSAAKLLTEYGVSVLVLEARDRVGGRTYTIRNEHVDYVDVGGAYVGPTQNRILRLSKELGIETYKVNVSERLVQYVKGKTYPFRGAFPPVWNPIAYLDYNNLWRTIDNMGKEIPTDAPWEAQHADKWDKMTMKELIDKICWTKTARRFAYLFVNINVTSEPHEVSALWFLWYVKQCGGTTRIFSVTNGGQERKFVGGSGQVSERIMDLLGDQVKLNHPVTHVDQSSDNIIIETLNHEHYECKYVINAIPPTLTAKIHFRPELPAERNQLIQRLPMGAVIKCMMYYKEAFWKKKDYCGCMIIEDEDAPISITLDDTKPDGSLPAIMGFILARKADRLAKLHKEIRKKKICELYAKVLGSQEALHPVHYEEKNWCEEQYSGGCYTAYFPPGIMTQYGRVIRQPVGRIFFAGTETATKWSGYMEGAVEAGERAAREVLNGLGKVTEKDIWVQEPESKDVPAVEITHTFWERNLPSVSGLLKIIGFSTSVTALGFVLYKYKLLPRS

[3] = target: T2, Monoamine Oxidase Type-B (MAO-B) (Homo sapiens, UniProt P27338)
T2 sequence (P27338 1-520): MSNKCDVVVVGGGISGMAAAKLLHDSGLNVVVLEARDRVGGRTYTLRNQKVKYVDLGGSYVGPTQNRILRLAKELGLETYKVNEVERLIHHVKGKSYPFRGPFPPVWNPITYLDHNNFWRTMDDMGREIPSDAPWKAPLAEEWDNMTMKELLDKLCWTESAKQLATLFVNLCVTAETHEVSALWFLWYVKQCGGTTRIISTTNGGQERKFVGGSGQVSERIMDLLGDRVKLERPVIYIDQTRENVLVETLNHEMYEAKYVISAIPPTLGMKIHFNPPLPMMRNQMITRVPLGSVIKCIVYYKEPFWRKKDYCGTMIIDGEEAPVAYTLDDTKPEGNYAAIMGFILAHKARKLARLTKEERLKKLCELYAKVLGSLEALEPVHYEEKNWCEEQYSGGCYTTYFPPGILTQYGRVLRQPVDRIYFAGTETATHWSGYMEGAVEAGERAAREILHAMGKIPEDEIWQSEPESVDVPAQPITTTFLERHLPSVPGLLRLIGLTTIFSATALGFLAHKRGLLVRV

[4] = target: anandamide (CB1) receptor (Homo sapiens, UniProt P21554)
[5] = tested on: various different bioreceptor sites; settings: sites commonly effected by most other psychoactive compounds
[6] = in vivo; remark: listed apart in the source
[7] = in vivo; remark: listed apart in the source
[8] = tested on: dopamine in the nucleus accumbens; settings: in vivo
[9] = mice
[10] = in vivo; remark: listed apart in the source
[11] = ingested orally
[12] = moisture, light, and radiation

anandamide (CB1) receptor, sequence (P21554 whole entry, species assumed): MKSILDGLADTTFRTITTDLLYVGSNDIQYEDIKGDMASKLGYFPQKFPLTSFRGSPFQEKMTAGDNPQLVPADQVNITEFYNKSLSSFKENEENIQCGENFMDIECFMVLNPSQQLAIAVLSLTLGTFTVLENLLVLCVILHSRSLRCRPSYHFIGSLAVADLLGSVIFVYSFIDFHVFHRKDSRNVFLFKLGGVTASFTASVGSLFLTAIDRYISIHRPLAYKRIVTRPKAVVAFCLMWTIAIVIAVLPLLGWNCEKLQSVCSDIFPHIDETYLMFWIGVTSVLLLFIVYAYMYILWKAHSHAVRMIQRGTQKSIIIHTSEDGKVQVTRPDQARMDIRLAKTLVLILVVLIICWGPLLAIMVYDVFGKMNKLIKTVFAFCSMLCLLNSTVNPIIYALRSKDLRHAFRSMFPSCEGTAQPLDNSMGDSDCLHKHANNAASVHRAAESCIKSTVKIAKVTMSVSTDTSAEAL

Row | SMILES | psychoactive effect / activity [1] | inhibition of MAO-A enzyme [2] | inhibition of MAO-B enzyme [3] | active binding to the anandamide (CB1) receptor site [4] | active binding to the MK-801 receptor site (MK-801 receptor sites) | competitive inhibition of reference target compounds at bioreceptor sites [5] | toxicity [6] | habit forming / addictiveness [7] | release of dopamine in the nucleus accumbens [8] | minimal dose [1] [mg] | anxiolytic and anti-depressant findings [9] | effect on cocaine-produced drug seeking [10] | entry into the blood stream [11] | solubility in acetone | solubility in water and saliva (when still embedded in the leaf) | stability of potency [12]
1 | COC(=O)[C@@H]1C[C@H](O)C(=O)[C@H]2[C@@]1(C)CC[C@H]1C(=O)O[C@H](c3ccoc3)C[C@]21C [Salvinorin “B”] | not known to induce psychoactive effect | – | – | – | – | – | – | – | – | – | – | – | – | – | – | –
2 | COC(=O)[C@@H]1C[C@H](OC(C)=O)C(=O)[C@H]2[C@@]1(C)CC[C@H]1C(=O)O[C@H](c3ccoc3)C[C@]21C [Salvinorin A] | – | does not inhibit | does not inhibit | nor has it shown any active binding | nor has it shown any active binding | has not been shown to incur any significant, competitive inhibition | almost entirely non-toxic; also recorded: ultra low toxicity | non-habit forming and thus non-addictive | does not induce the release of dopamine | 0.2 | anxiolytic and anti-depressant | successful in decreasing the effect of cocaine-produced drug seeking | doesn't efficiently enter the blood stream | highly soluble | substantially water- and saliva-insoluble | diminish the potency
